Earlier results on four compounds are cited in patent US20050215535A1, “Sequential SPRM/progestin treatment” (priority 2004, published 2005).

One series concerns the target T1, progesterone receptor (Oryctolagus cuniculus, UniProt P06186).
T1 construct: SPRMs score lower than progesterone in the McPhail bioassay in rabbits; from tissue; host or cells: living rabbit (in vivo; the endometrium as read-out tissue is own knowledge of the McPhail test)
T1 sequence (P06186 1-930): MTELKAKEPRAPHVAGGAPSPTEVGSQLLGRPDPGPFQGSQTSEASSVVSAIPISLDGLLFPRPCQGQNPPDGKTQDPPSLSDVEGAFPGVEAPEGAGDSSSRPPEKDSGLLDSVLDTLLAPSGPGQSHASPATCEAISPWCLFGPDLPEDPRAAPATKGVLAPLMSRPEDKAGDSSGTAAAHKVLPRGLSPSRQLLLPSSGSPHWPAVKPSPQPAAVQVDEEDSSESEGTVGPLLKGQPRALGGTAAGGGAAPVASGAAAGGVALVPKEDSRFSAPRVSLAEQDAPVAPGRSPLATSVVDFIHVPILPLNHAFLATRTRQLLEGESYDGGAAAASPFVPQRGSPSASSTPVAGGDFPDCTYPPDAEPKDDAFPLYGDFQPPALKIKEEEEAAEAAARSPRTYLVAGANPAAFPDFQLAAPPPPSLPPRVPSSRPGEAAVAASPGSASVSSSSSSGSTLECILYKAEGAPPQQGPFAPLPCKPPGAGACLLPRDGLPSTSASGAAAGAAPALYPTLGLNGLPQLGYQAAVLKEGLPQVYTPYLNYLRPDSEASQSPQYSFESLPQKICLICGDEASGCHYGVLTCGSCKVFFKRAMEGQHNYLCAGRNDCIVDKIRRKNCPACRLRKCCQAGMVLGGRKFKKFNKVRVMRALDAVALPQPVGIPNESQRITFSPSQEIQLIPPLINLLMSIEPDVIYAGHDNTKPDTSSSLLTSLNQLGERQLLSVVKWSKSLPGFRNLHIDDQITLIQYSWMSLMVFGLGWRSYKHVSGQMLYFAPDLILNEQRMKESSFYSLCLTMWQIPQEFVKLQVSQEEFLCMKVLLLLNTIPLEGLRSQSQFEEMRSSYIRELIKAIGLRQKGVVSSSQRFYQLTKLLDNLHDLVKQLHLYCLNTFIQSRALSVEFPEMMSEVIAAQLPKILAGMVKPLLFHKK
The settings on record: rabbit model; for McPhail score: scale of 0-4.

Some results are limits rather than exact numbers.

Consider `COC[C@]1(OC)CC[C@H]2[C@@H]3CCC4=CC(=O)CCC4=C3[C@@H](c3ccc(/C=N/O)cc3)C[C@@]21C` [J867], for which the “time to withdrawal bleeding (start of spontaneous menstrual cycle) after stopping the SPRM treatment” value in the series with premenopausal women (all subjects) is given as “up to 90 days”. The “resumption of menstruation after cessation of treatment” value in the series with premenopausal women (majority of subjects) is not above 30 days.
Consider `CC#C[C@]1(O)CC[C@H]2[C@@H]3CCC4=CC(=O)CCC4=C3[C@@H](c3ccc(N(C)C)cc3)C[C@@]21C` [RU486, mifepristone], for which, at progesterone receptor, the “agonist activity in the McPhail test” value is listed as “do not show any agonist activity” and the McPhail score entry was “less than 0.5”.
With `CN(C)c1ccc([C@H]2C[C@]3(C)[C@@H](CC[C@]3(O)CCCO)[C@@H]3CCC4=CC(=O)CCC4=C32)cc1` [onapristone], at progesterone receptor, the “agonist activity in the McPhail test” value is on record as “do not show any agonist activity”.
For `CC(=O)[C@H]1CC[C@H]2[C@@H]3CCC4=CC(=O)CC[C@]4(C)[C@H]3CC[C@]12C` [progesterone], the McPhail score at progesterone receptor is reported as 4.
